Measurements as given in patent publication US20230295197A1, “STAT5 and STAT6 Degraders and Uses Thereof” (REGENTS OF THE UNIVERSITY OF MICHICAN, priority 2022, published 2023).
Where two headings read alike, the source gives them in different places.

Assays:
STAT5 = assay: Immunoblotting (Western blot) analysis of STAT5 degradation efficiency of degraders in treated cells; type: cell-based
How it was run: (§1)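 Cells (~1 million per point) treated with compounds at indicated concentrations and times, lysed in RIPA with protease/phosphatase inhibitors; 20-40 μg protein run on SDS-PAGE and blotted to PVDF. STAT6 or STAT5 rabbit mAbs with GAPDH loading control, IRDye secondaries; near-infrared fluorescence scan, band intensity quantified.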

STAT6 = target: T1, STAT6 (Homo sapiens, UniProt P42226); assay: Immunoblotting (Western blot) analysis of STAT6 degradation efficiency of degraders in treated cells; type: cell-based
T1 construct: endogenous in cells; host or cells: MOLM-16, KU-812, SKNO1, MB231, L1236
T1 sequence (P42226 1-847): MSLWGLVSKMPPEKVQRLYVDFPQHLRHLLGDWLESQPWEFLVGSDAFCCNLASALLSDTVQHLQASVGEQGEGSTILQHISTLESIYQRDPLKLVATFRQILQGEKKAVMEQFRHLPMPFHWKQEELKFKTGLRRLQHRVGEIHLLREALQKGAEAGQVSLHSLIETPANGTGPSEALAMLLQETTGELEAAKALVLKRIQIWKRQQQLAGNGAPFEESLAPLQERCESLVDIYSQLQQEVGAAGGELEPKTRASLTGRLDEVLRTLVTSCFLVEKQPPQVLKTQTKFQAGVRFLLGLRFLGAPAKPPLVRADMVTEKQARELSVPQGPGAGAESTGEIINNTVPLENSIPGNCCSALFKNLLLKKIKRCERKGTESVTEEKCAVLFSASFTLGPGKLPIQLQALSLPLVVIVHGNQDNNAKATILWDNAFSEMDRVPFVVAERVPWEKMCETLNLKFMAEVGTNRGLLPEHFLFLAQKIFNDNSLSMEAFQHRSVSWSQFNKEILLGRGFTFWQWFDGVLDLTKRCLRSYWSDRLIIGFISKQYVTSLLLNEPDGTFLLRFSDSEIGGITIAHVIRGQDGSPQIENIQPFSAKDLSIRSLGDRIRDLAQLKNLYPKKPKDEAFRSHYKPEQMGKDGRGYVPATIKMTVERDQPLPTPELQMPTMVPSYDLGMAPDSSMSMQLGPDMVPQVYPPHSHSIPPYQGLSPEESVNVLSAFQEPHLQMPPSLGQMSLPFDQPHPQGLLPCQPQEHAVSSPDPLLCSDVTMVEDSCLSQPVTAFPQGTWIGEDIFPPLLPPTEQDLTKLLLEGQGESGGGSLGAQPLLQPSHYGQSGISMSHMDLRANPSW
How it was run: as §1

[1] = MOLM-16 cells, class symbols, read-out: DC50 S5 MOLM-16
[2] = MOLM-16 cells, class symbols, read-out: DC50 S6 MOLM-16
[3] = MOLM-16 cells, numeric bound, read-out: DC50 S6 MOLM-16
[4] = MOLM-16 cells, numeric bound, read-out: DC50 S5 MOLM-16
[5] = SKNO1 cells, read-out: DC50 S5 SKNO1
[6] = MB231 cells, read-out: DC50 S6 MB231

| DC50 (STAT5; [1]) | DC50 (STAT6; [3]) | DC50 (STAT5; [4]) | Compound | other results |
| --- | --- | --- | --- | --- |
| > 10000 nM |  |  | CC(C)(C)C(=O)OCOP(=O)(O)C(F)(F)c1ccc2sc(C(=O)N[C@H](C(=O)N3C[C@@H](OCCCCCC#Cc4cccc5c4CN(C4CCC(=O)NC4=O)C5=O)C[C@H]3C(=O)N3CCO[C@H](c4ccccc4)C3)C(C)(C)C)cc2c1 (stereo partly drawn) [Compound 652, ((((2-(((2S)-1-((2S,4S)-4-((7-(2-(2,6-dioxopiperidin-3-yl)-1-oxoisoindolin-4-yl)hept-6-yn-1-yl)oxy)-2-((R)-2-phenylmorpholine-4-carbonyl)pyrrolidin-1-yl)-3,3-dimethyl-1-oxobutan-2-yl)carbamoyl)benzo[b]thiophen-5-yl)difluoromethyl)(hydroxy)phosphoryl)oxy)methyl pivalate] | DC50 (STAT6; [2]): < 100 nM |
| < 100 nM | > 300 nM |  | CN(CCCC#Cc1cccc2c1CN(C1CCC(=O)NC1=O)C2=O)C(=O)CCN(C(=O)[C@@H]1CCCN1C(=O)[C@@H](NC(=O)c1cc2cc(C(F)(F)P(=O)(O)OCOC(=O)C(C)(C)C)ccc2s1)C(C)(C)C)c1ccc2ccoc2c1 (stereo partly drawn) [Compound 674, ((((2-(((2S)-1-((2S)-2-(benzofuran-6-yl(3-((5-(2-(2,6-dioxopiperidin-3-yl)-1-oxoisoindolin-4-yl)pent-4-yn-1-yl)(methyl)amino)-3-oxopropyl)carbamoyl)pyrrolidin-1-yl)-3,3-dimethyl-1-oxobutan-2-yl)carbamoyl)benzo[b]thiophen-5-yl)difluoromethyl)(hydroxy)phosphoryl)oxy)methyl pivalate] |  |
|  | > 300 nM | > 300 nM | CC(C)(C)[C@H](NC(=O)c1cc2cc(C(F)(F)P(=O)(O)O)ccc2s1)C(=O)N1CCC[C@H]1C(=O)N(CCCCCCCC#Cc1cccc2c1CN(C1CCC(=O)NC1=O)C2=O)c1ccc(-c2nccs2)cc1 (stereo partly drawn) [Compound 670, ((2-(((2S)-1-((2S)-2-((9-(2-(2,6-dioxopiperidin-3-yl)-1-oxoisoindolin-4-yl)non-8-yn-1-yl)(4-(thiazol-2-yl)phenyl)carbamoyl)pyrrolidin-1-yl)-3,3-dimethyl-1-oxobutan-2-yl)carbamoyl)benzo[b]thiophen-5-yl)difluoromethyl)phosphonic acid] | DC50 (STAT5; [5]): > 10000 nM |
| > 10000 nM |  |  | CC(C)(C)[C@H](NC(=O)c1cc2cc(C(F)(F)P(=O)(O)O)ccc2s1)C(=O)N1C[C@@H](OCCCCCC#Cc2cccc3c2CN(C2CCC(=O)NC2=O)C3=O)C[C@H]1C(=O)N1CCO[C@H](c2ccccc2)C1 (stereo partly drawn) [Compound 593, ((2-(((2S)-1-((2S,4S)-4-((7-(2-(2,6-dioxopiperidin-3-yl)-1-oxoisoindolin-4-yl)hept-6-yn-1-yl)oxy)-2-((R)-2-phenylmorpholine-4-carbonyl)pyrrolidin-1-yl)-3,3-dimethyl-1-oxobutan-2-yl)carbamoyl)benzo[b]thiophen-5-yl)difluoromethyl)phosphonic acid] | DC50 (STAT6; [2]): < 100 nM |
|  | > 300 nM | > 300 nM | CC(C)(C)C(=O)OCOP(=O)(O)C(F)(F)c1ccc2sc(C(=O)N[C@H](C(=O)N3CCC[C@H]3C(=O)N(CCOCCOCC#Cc3cccc4c3CN(C3CCC(=O)NC3=O)C4=O)c3ccc4ccccc4c3)C(C)(C)C)cc2c1 (stereo partly drawn) [Compound 678, ((((2-(((2S)-1-((2S)-2-((2-(2-((3-(2-(2,6-dioxopiperidin-3-yl)-1-oxoisoindolin-4-yl)prop-2-yn-1-yl)oxy)ethoxy)ethyl)(naphthalen-2-yl)carbamoyl)pyrrolidin-1-yl)-3,3-dimethyl-1-oxobutan-2-yl)carbamoyl)benzo[b]thiophen-5-yl)difluoromethyl)(hydroxy)phosphoryl)oxy)methyl pivalate] |  |
|  | > 300 nM | > 300 nM | CC(C)(C)[C@H](NC(=O)c1cc2cc(C(F)(F)P(=O)(O)O)ccc2s1)C(=O)N1C[C@H](OCCCCCCC#Cc2cccc3c2CN(C2CCC(=O)NC2=O)C3=O)C[C@H]1C(=O)Nc1ncc(-c2ccccc2)s1 (stereo partly drawn) [Compound 606, ((2-(((2S)-1-((2S,4R)-4-((8-(2-(2,6-dioxopiperidin-3-yl)-1-oxoisoindolin-4-yl)oct-7-yn-1-yl)oxy)-2-((5-phenylthiazol-2-yl)carbamoyl)pyrrolidin-1-yl)-3,3-dimethyl-1-oxobutan-2-yl)carbamoyl)benzo[b]thiophen-5-yl)difluoromethyl)phosphonic acid] |  |
| < 100 nM | > 300 nM |  | CN(CCCC#Cc1cccc2c1CN(C1CCC(=O)NC1=O)C2=O)C(=O)CCN(C(=O)[C@@H]1CCCN1C(=O)[C@@H](NC(=O)c1cc2cc(C(F)(F)P(=O)(O)OCOC(=O)C(C)(C)C)ccc2s1)C(C)(C)C)c1ccc2ccccc2c1 (stereo partly drawn) [Compound 673, ((((2-(((2S)-1-((2S)-2-((3-((5-(2-(2,6-dioxopiperidin-3-yl)-1-oxoisoindolin-4-yl)pent-4-yn-1-yl)(methyl)amino)-3-oxopropyl)(naphthalen-2-yl)carbamoyl)pyrrolidin-1-yl)-3,3-dimethyl-1-oxobutan-2-yl)carbamoyl)benzo[b]thiophen-5-yl)difluoromethyl)(hydroxy)phosphoryl)oxy)methyl pivalate] |  |
|  |  |  | CN(C(=O)[C@@H]1C[C@@H](OCC(=O)NCCCCCCC#Cc2cccc3c2CN(C2CCC(=O)NC2=O)C3=O)CN1C(=O)[C@@H](NC(=O)c1cc2cc(C(F)(F)P(=O)(O)O)ccc2s1)C(C)(C)C)c1ccc(Br)cc1 (stereo partly drawn) [Compound 413, ((2-(((2S)-1-((2S,4R)-2-((4-bromophenyl)(methyl)carbamoyl)-4-(2-((8-(2-(2,6-dioxopiperidin-3-yl)-1-oxoisoindolin-4-yl)oct-7-yn-1-yl)amino)-2-oxoethoxy)pyrrolidin-1-yl)-3,3-dimethyl-1-oxobutan-2-yl)carbamoyl)benzo[b]thiophen-5-yl)difluoromethyl)phosphonic acid] | DC50 (STAT5; [5]): > 10000 nM; DC50 (STAT6; L1236 cells, read-out: DC50 S6 L1236): > 10000 nM; DC50 (STAT6; [6]): > 10000 nM |
| 100 to 1000 nM | > 300 nM |  | CN(CCCC#Cc1cccc2c1CN(C1CCC(=O)NC1=O)C2=O)C(=O)CCN(C(=O)[C@@H]1CCCN1C(=O)[C@@H](NC(=O)c1cc2cc(C(F)(F)P(=O)(O)OCOC(=O)C(C)(C)C)ccc2s1)C(C)(C)C)c1ccc2cc(F)ccc2c1 (stereo partly drawn) [Compound 675, ((((2-(((2S)-1-((2S)-2-((3-((5-(2-(2,6-dioxopiperidin-3-yl)-1-oxoisoindolin-4-yl)pent-4-yn-1-yl)(methyl)amino)-3-oxopropyl)(6-fluoronaphthalen-2-yl)carbamoyl)pyrrolidin-1-yl)-3,3-dimethyl-1-oxobutan-2-yl)carbamoyl)benzo[b]thiophen-5-yl)difluoromethyl)(hydroxy)phosphoryl)oxy)methyl pivalate] |  |
|  | > 300 nM | > 300 nM | O=C(CCN(C(=O)CN1CCCC[C@H](NC(=O)c2cc3cc(C(F)(F)P(=O)(O)O)ccc3s2)C1=O)c1ccc(Br)cc1)NCCCC#Cc1cccc2c1CN(C1CCC(=O)NC1=O)C2=O (stereo partly drawn) [Compound 664, ((2-(((3S)-1-(2-((4-bromophenyl)(3-((5-(2-(2,6-dioxopiperidin-3-yl)-1-oxoisoindolin-4-yl)pent-4-yn-1-yl)amino)-3-oxopropyl)amino)-2-oxoethyl)-2-oxoazepan-3-yl)carbamoyl)benzo[b]thiophen-5-yl)difluoromethyl)phosphonic acid] |  |
| 100 to 1000 nM |  |  | CC(C)(C)[C@H](NC(=O)c1cc2cc(C(F)(F)P(=O)(O)O)ccc2s1)C(=O)N1CCC[C@H]1C(=O)N(CCC(=O)NCCCCCC#Cc1cccc2c1CN(C1CCC(=O)NC1=O)C2=O)c1ccc(Br)cc1 (stereo partly drawn) [Compound 405, ((2-(((2S)-1-((2S)-2-((4-bromophenyl)(3-((7-(2-(2,6-dioxopiperidin-3-yl)-1-oxoisoindolin-4-yl)hept-6-yn-1-yl)amino)-3-oxopropyl)carbamoyl)pyrrolidin-1-yl)-3,3-dimethyl-1-oxobutan-2-yl)carbamoyl)benzo[b]thiophen-5-yl)difluoromethyl)phosphonic acid] | DC50 (STAT5; KU-812 cells, read-out: DC50 S5 KU-812): 100 to 1000 nM; DC50 (STAT5; [5]): 100 to 1000 nM; DC50 (STAT6; [6]): > 10000 nM; DC50 (STAT6; [2]): > 10000 nM |
